According to BigSolDB 2.1:

CC(=O)[C@@]1(O)CC[C@H]2[C@@H]3CCC4=CC(=O)CC[C@]4(C)[C@H]3C(O)C[C@@]21C (stereo in doubt)
solubility (mole fraction)
Details | 278.15 K | 283.15 K | 288.15 K | 293.15 K | 298.15 K | 303.15 K | 308.15 K | 313.15 K
in DMF | 0.0659 | 0.0722 | 0.0753 | 0.0825 | 0.0943 | 0.1 | 0.11 | 0.119
in acetone | 0.00679 | 0.00761 | 0.00804 | 0.00859 | 0.0095 | 0.0106 | 0.0115 | 0.0123
in chloroform | 0.0129 | 0.0134 | 0.0141 | 0.0146 | 0.0157 | 0.016 | 0.0172 | 0.0189
in methanol | 0.0139 | 0.0147 | 0.0159 | 0.0172 | 0.0181 | 0.0206 | 0.0232 | 0.0249
in n-propanol | 0.00838 | 0.00978 | 0.0112 | 0.0129 | 0.0134 | 0.0143 | 0.0157 | 0.0169
in water | 1.39e-05 | 1.73e-05 | 2.08e-05 | 2.43e-05 | 2.77e-05 | 3.47e-05 | 3.64e-05 | 3.98e-05
